Laboratory results as given in patent US6620834B1, “Medicinal compositions for treating colorectal cancer” (Hisamitsu Pharmaceutical Co., Inc., priority 1999, dated 2003).

System: Yoshida's sarcoma
Test: liver metastasis inhibitory effect in Yoshida's sarcoma rat model bearing a colorectal cancer
Type: in vivo
Conditions: Donryu rats, Yoshida's sarcoma injected to sigmoid subserous; intra-colon administration for 5 days, autopsy day 6; versus control group
Experimental: The solution was prepared in which pravastatin and aspirin were mixed in the mixing ratio below, and the pharmacological evaluation was carried out in the liver metastasis model of rat colorectal cancer.
The liver metastasis inhibitory effect was evaluated in the following procedure by use of the mix solution prepared in the example 1.
Donryu strain rats (8 weeks old) were used. Under a sodium pentobarbital anesthesia a catheter was inserted from the ileocecum into the colon, and the plug was put out from the back part and fixed. At the same time Yoshida's sarcoma (1.5×10^6cells/30 μl/rat) was injected to the sigmoid subserous.
The mix solution prepared in the example 1 was administered intra-colon or orally for 5 days from the next day after the surgery, and at day 6 a pathologic autopsy was made.
When the test on day 6 was finished, rats were killed by bleeding for a pathologic autopsy. The liver was isolated from each individual, fixed by a neutral buffered formalin solution, and a tissue section was then prepared to obtain histopathological findings. The metastasis inhibitory ratio was calculated comparing with the engraftment ratio of the cancer cells in the control group.

Structure (SMILES): CC(=O)Oc1ccccc1C(=O)O [aspirin, Aspirin]
- liver metastasis inhibitory effect: hardly observed
